Experimental data reported in patent US5556941A, “Glycopeptide derivatives, a process for their preparation and pharmaceutical agents containing these compounds” (Behringwerke Aktiengesellschaft, priority 1992, dated 1996).

How the values were obtained:
human thrombin = biological target: T1, human thrombin (Homo sapiens, UniProt P00734); assay: Determination of the inhibition constants (Ki) for thrombin, chromogenic substrate S-2238; format: biochemical; conditions: 100 pM human thrombin, pH 7.8, 37° C., 10 minutes preincubation, tight-binding evaluation
T1 construct: By proteolysis the proenzyme prothrombin is converted into thrombin
Method: The inhibition constants (Ki) of the compounds of the formula I were determined in established enzyme-kinetic procedures. […] Inhibitor and enzyme were preincubated for 10 minutes, and the reaction was started by addition of the chromogenic substrate S2238. For the evaluation of the kinetics, the mathematical algorithm for tight-binding was used, which gave Ki values and the inhibition type with the aid of non-linear regression.

CD rats = assay: Determination of the acute toxicity; format: in vivo, rat; conditions: i.v., survival on day 1, Litchfield & Wilcoxon method
Method: To determine the acute toxicity, CD rats were injected i.v. on day 0 with different doses of the test substance dissolved in 0.5 mL of physiol. NaCl solution. Control groups received only 0.5 mL of physiol. NaCl solution. 2 rats were used per concentration of the test substance. The number of rats surviving on day 1 was determined and the LD5, LD50 and LD95 were calculated by the Litchfield & Wilcoxon method. […] The results are summarized in Table I. Pharmacological data and activities of some selected compounds: […]

[1] = biological target: T2, trypsin from bovine pancreas (Bos taurus, UniProt P00760); assay: Determination of the specificity of the inhibitors: Ki of trypsin, substrate Chromozyme TRY; format: biochemical; conditions: for Ki: 0.5 nM bovine pancreas trypsin, pH 7.8, 37° C., 10 minute preincubation; for Specificity Try/Thr: ratio Ki trypsin / Ki thrombin
T2 construct: from tissue; host or cells: bovine pancreas
T2 sequence (P00760 24-246): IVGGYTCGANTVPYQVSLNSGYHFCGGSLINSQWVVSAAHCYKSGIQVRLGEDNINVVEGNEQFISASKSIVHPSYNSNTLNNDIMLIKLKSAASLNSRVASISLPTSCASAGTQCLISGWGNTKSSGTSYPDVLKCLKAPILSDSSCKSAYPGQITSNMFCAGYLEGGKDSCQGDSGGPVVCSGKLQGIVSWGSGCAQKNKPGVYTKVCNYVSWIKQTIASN
Method: The specificity of the inhibitors towards thrombin and trypsin was determined. The Ki of trypsin was determined in an analogous manner to the determination of the Ki of thrombin. The reaction mixture was composed as follows--buffer: 200 mM triethanolamine, 20 mM CaCl2, pH 7.8; 37° C.; enzyme: 0.5 nM trypsin from bovine pancreas; substrate: 500 μM carbobenzoxy-L-valyl-glycyl-L-arginine-4-nitranilide (Chromozyme TRY, from Boehringer Mannheim). The enzymatic reaction was started after a 10 minute preincubation by addition of the substrate.

thrombin = conditions: cited from earlier work

For `COc1cc(C)c(S(=O)(=O)N[C@@H](CC(=O)O)C(=O)N[C@H](Cc2ccc(C(=N)N)cc2)C(=O)N2CCCCC2)c(C)c1C.Cl` [Compound 43, 2-N-(4-Methoxy-2,3,6-trimethyl-benzenesulfonyl)-L-Asp-4-amidino-D-phenylalanine-piperidide×HCl], the Ki (human thrombin) was 1.5 nM, the “LD50 (rat)” value (CD rats) was 62 mg/kg and the Ki [1] was 187 nM. For the same molecule, the “Specificity Try/Thr” value [1] was 125.

In the case of `COc1cc(C)c(S(=O)(=O)N[C@@H](CC(=O)N[C@@H]2O[C@H](C(=O)O)[C@@H](O)[C@H](O)[C@H]2O)C(=O)N[C@H](Cc2ccc(C(=N)N)cc2)C(=O)N2CCCCC2)c(C)c1C.Cl` [Compound 30, 2-N-(4-Methoxy-2,3,6-trimethyl-benzenesulfonyl)-4-N-[(β-D-glucopyranosyl)-uronic acid]-L-asparaginyl-4-amidino-D-phenylalanine-piperidide hydrochloride], the Ki (human thrombin) is reported as 0.085 nM, the “LD50 (rat)” value (CD rats) is reported as 51 mg/kg and the Ki [1] is reported as 349 nM. For the same molecule, the “Specificity Try/Thr” value [1] was 4106.

In the case of `N=C(N)c1ccc(CC(NC(=O)CNS(=O)(=O)c2ccc3ccccc3c2)C(=O)N2CCCCC2)cc1` (centres unmarked) [NAPAP, 2-N-(2-naphthalenesulfonylglycyl)-4-amidino-phenylalaninc piperidide], the specificity for thrombin (thrombin) is given as “too low”.

In the case of `COc1cc(C)c(S(=O)(=O)N[C@@H](CC(=O)N[C@H]2O[C@@H](C)[C@@H](O)[C@@H](O)[C@@H]2O)C(=O)N[C@H](Cc2ccc(C(=N)N)cc2)C(=O)N2CCCCC2)c(C)c1C.Cl` [Compound 49, 2-N-(4-Methoxy-2,3,6-trimethyl-benzenesulfonyl)-4-N-(β-L-fucopyranosyl)-L-aspaginyl-4-amidino-D-phenylalanine-piperidide hydrochloride], the Ki (human thrombin) is reported as 0.1 nM, the “LD50 (rat)” value (CD rats) is reported as 52 mg/kg and the Ki [1] is reported as 531 nM. The “Specificity Try/Thr” value [1] was 5310.

In the case of `COc1cc(C)c(S(=O)(=O)N[C@@H](CC(=O)N[C@@H]2O[C@H](CO)[C@@H](O)[C@H](O)[C@H]2O)C(=O)N[C@H](Cc2ccc(C(=N)N)cc2)C(=O)N2CCCCC2)c(C)c1C.Cl` [Compound 31], the “LD50 (rat)” value (CD rats) is reported as 45 mg/kg and the “Specificity Try/Thr” value [1] is reported as 6680.

For `COc1cc(C)c(S(=O)(=O)N[C@@H](CC(=O)N[C@@H]2O[C@H](CO)[C@@H](O)[C@H](O)[C@H]2O)C(=O)N[C@H](Cc2ccc(C(=N)N)cc2)C(=O)N2CCCCC2)c(C)c1C.Cl` [Compound 31, 2-N-(4-Methoxy-2,3,6-trimethyl-benzenesulfonyl)-4-N-[(β-D-glucopyranosyl)-L-asparaginyl-4-amidino-D-phenylalanine-piperidide hydrochloride], the Ki (human thrombin) was 0.075 nM and the Ki [1] was 501 nM.

For `COC(=O)C1OC(NC(=O)C[C@H](NS(=O)(=O)c2c(C)cc(OC)c(C)c2C)C(=O)N[C@H](Cc2ccc(C(=N)N)cc2)C(=O)N2CCCCC2)C(OC(C)=O)C(OC(C)=O)C1OC(C)=O.Cl` (stereo partly drawn) [Compound 24, 2-N-(4-Methoxy-2,3,6-trimethyl-benzenesulfonyl)-4-N-[methyl (2,3,4-tri-O-acetyl-β-D-glucopyranosyl)uronate]-L-asparaginyl-4-amidino-D-phenylalanine-piperidide hydrochloride], the Ki (human thrombin) was 0.8 nM, the “LD50 (rat)” value (CD rats) was 46 mg/kg and the Ki [1] was 231 nM. For the same molecule, the “Specificity Try/Thr” value [1] was 289.

For `COc1cc(C)c(S(=O)(=O)N[C@@H](CC(=O)N[C@@H]2O[C@H](COC(C)=O)[C@@H](OC(C)=O)[C@H](OC(C)=O)[C@H]2OC(C)=O)C(=O)N[C@H](Cc2ccc(C(=N)N)cc2)C(=O)N2CCCCC2)c(C)c1C.Cl` [Compound 25, 2-N-(4-Methoxy-2,3,6-trimethyl-benzenesulfonyl)-4-N-(2,3,4,6-tetra-O-acetyl-β-D-glucopyranosyl)-L-asparaginyl-4-amidino-D-phenylalanine-piperidide hydrochloride], the Ki (human thrombin) was 2.4 nM, the “LD50 (rat)” value (CD rats) was 55 mg/kg and the Ki [1] was 283 nM. For the same molecule, the “Specificity Try/Thr” value [1] was 118.

With `COc1cc(C)c(S(=O)(=O)N[C@@H](CC(=O)N[C@@H]2O[C@H](CO)[C@H](O)[C@H](O)[C@H]2O)C(=O)N[C@H](Cc2ccc(C(=N)N)cc2)C(=O)N2CCCCC2)c(C)c1C.Cl` [Compound 41, 2-N-(4-Methoxy-2,3,6-trimethyl-benzenesulfonyl)-4-N-(β-D-galactopyranosyl)-L-asparaginyl-4-amidino-D-phenylalanine-piperidide hydrochloride] the Ki (human thrombin) was 0.04 nM, the “LD50 (rat)” value (CD rats) was 50 mg/kg and the Ki [1] was 375 nM. For the same molecule, the “Specificity Try/Thr” value [1] was 9375.

For `COc1cc(C)c(S(=O)(=O)N[C@@H](CC(=O)N[C@@H]2O[C@H](CO)[C@H](O)[C@H](O)[C@H]2NC(C)=O)C(=O)N[C@H](Cc2ccc(C(=N)N)cc2)C(=O)N2CCCCC2)c(C)c1C.Cl` [Compound 50, 2-N-(4-Methoxy-2,3,6-trimethyl-benzenesulfonyl)-4-N-(2-acetamido-2-deoxy-β-D-galactopyranosyl)-L-asparaginyl-4-amidino-D-phenylalanine-piperididehydrochloride], the Ki (human thrombin) was 2.1 nM, the “LD50 (rat)” value (CD rats) was 64 mg/kg and the Ki [1] was 608 nM. For the same molecule, the “Specificity Try/Thr” value [1] was 289.

With `COc1cc(C)c(S(=O)(=O)N[C@@H](CC(=O)N[C@@H]2O[C@H](CO)[C@@H](O)[C@H](O)[C@H]2NC(C)=O)C(=O)N[C@H](Cc2ccc(C(=N)N)cc2)C(=O)N2CCCCC2)c(C)c1C.Cl` [Compound 32, 2-N-(4-Methoxy-2,3,6-trimethyl-benzenesulfonyl)-4-N-(2-acetamido-2-deoxy-β-D-glucopyranosyl)-L-asparaginyl-4-amidino-D-phenylalanine-piperidide hydrochloride] the Ki (human thrombin) was 1.1 nM, the “LD50 (rat)” value (CD rats) was 53 mg/kg and the Ki [1] was 528 nM. For the same molecule, the “Specificity Try/Thr” value [1] was 480.

With `COc1cc(C)c(S(=O)(=O)N[C@@H](CO[C@@H]2OC[C@@H](O)[C@@H](O)[C@H]2O)C(=O)N[C@H](Cc2ccc(C(=N)N)cc2)C(=O)N2CCCCC2)c(C)c1C.I` [Compound 42, 2-N-(4-Methoxy-2,3,6-trimethyl-benzenesulfonyl)-3-O-(β-D-ribo-pyranosyl)-L-seryl-4-amidino-D-phenylalanine-piperidide hydroiodide] the Ki (human thrombin) was 1.3 nM, the “LD50 (rat)” value (CD rats) was 60 mg/kg and the Ki [1] was 650 nM. The “Specificity Try/Thr” value [1] was 500.
